Measurements as given in patent US20060052451A1, “Method” (priority 2002, published 2006).

How the values were obtained:
[1] = test system: three human tumour-derived cell lines (HT-29, MCF7, PC3); assay: SRB growth inhibition, summary over the three human tumour cell lines; type: cell-based; details: Homo sapiens; over HT-29, MCF7 and PC3
Description: (§1) The effect of perfluorinated compounds on the inhibition of tumour cell growth was assessed iii vitro using three human tumour-derived cell lines. Cancer cell lines were tested using the sulphorhodamine B (SRB) assay (which measures cellular protein and is directly related to cell number), which is utilised by the […] to screen anti-cancer agents.
(§2) HT-29 cells (human colon tumour-derived), MCF7 cells (human breast cancer-derived) and PC3 cells (human prostate cancer-derived) were harvested and diluted (to 5×10^4 cells per ml, 1×10^5 cells per ml and 7.5×10^4 cells per ml respectively) in RPMI 1640 medium containing 5% FBS, 2 mM glutamine and. 50 μg/ml gentamicin. 100 μl of cell suspension per well was added to 96 well plates and allowed to attach overnight. Cells were exposed to test compounds dissolved in DMSO in 100 μl of medium to give final drug concentrations of 0, 0.3, 1, 3, 10, 30, 100, 300, 1000 and 3000 μM (and DMSO at 0.25%). (n=6 for each drug concentration). After 48 hours, cells were fixed in 10% trichloroacetic acid (TCA) at 4° C. for 1-2 hours then washed using water and subsequently air-dried. 100 μl SRB solution (0.4%) in 1% Acetic Acid was added to each well, and plates were incubated at room temperature for 10 minutes. Unbound dye was removed by washing with 1% acetic acid. Plates were air-dried and bound stain was solubilised in 10 mM Tris base and the absorbance read at 520 nm.

[2] = Plasma levels of PFOA after 11 days oral dosing in SD rats (LC/MS/MS); type: in vivo, rat; details: 25 mg/kg oral daily for 11 days, 24 hours after final administration
Description: The study consisted of one control group of 8 male CD Sprague Dawley rats (8-10-weeks old; obtained from Harlan, UK) and 4 test groups that contained 4 rats. Animals received powdered RM1 diet ad libitum for the duration of the study. […] All chemicals were dissolved in Mazola corn oil (at 2.5 mg/ml) and test compounds were administered at 10 ml/kg bodyweight. Control animal received Mazola corn oil only. All animals were sacrificed after 11 days. Animals were killed by exposure to rising concentrations of CO2, and blood was harvested into lithium/heparin tubes for plasma.
Rat plasma samples were denatured by adding acetonitrile, and the amount of perfluorooctanoic acid (PFOA) present was determined by LC/MS/MS.

[3] = test system: PC3 cells (human prostate cancer-derived); assay: SRB growth inhibition assay, PC3 cells; type: cell-based; details: Homo sapiens, PC-3, 48 hours exposure
Description: as §1, §2

[4] = test system: HT-29 cells (human colon tumour-derived); assay: SRB growth inhibition assay, HT-29 cells; type: cell-based; details: Homo sapiens, HT-29, 48 h, 48 hours exposure
Description: as §1, §2

[5] = 7-day oral gavage study, metabolic parameters, body weight and food consumption in CR SD rats; type: in vivo, rat; details: for Cholesterol (plasma) / Glucose (plasma) / Insulin (plasma) / Triglycerides (plasma): n=5
Description: Two groups (n=5) of CR SD rats (approximately 300 g) were treated with 2 dose levels of perfluorinated compounds (15 and 25 mg/kg/day body weight). Animals were administered test substances, dissolved in corn oil, by oral gavage, daily for 7 days. One group of 20 CR SD rays was also treated with vehicle (corn oil) alone. Body weight and food consumption were monitored daily.
Twenty-four hours after the last dose the animals were killed by an increasing concentration of carbon dioxide. Blood was collected by cardiac puncture and plasma was prepared and stored at −70° C. until analysed.
Plasma was analysed for triglycerides, cholesterol, and glucose, using kits purchased from Sigma. Concentrations of plasma insulin were determined using a commercially available enzyme-immunoassay-based kit from Amersham Biosciences. All assays were carried out as specified by the manufacturer.

PPAR delta = target: T1, PPAR delta (Homo sapiens, UniProt Q03181); assay: PPAR delta transactivation assay in COS-1 cells; type: cell-based; set-up: Fold activation of PPAR delta: dose or concentration left out as unconfirmed; details: for Fold activation of PPAR delta: mean±SD n=3
T1 construct: 25 ng of vector DNA carrying PPAR alpha, delta or gamma; expressed in transfected cells; host or cells: COS-1 (African green monkey kidney cells)
T1 sequence (Q03181 1-441): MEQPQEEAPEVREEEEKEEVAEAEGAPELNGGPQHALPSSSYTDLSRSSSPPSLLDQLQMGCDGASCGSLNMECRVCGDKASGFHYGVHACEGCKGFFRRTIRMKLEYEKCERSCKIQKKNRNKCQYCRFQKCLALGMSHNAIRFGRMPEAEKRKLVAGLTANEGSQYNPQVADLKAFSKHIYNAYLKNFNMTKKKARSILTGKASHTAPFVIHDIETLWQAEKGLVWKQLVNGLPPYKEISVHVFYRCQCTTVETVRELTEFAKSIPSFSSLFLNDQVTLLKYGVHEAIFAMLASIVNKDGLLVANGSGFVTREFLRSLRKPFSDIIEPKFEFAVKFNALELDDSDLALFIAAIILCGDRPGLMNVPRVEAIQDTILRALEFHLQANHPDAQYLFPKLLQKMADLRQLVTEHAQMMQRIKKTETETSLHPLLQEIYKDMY

PPAR gamma = target: T2, PPAR gamma (Homo sapiens, UniProt P37231); assay: PPAR gamma transactivation assay in COS-1 cells; type: cell-based
T2 construct: 25 ng of vector DNA carrying PPAR alpha, delta or gamma; expressed in transfected cells; host or cells: COS-1 (African green monkey kidney cells)
T2 sequence (P37231 1-505): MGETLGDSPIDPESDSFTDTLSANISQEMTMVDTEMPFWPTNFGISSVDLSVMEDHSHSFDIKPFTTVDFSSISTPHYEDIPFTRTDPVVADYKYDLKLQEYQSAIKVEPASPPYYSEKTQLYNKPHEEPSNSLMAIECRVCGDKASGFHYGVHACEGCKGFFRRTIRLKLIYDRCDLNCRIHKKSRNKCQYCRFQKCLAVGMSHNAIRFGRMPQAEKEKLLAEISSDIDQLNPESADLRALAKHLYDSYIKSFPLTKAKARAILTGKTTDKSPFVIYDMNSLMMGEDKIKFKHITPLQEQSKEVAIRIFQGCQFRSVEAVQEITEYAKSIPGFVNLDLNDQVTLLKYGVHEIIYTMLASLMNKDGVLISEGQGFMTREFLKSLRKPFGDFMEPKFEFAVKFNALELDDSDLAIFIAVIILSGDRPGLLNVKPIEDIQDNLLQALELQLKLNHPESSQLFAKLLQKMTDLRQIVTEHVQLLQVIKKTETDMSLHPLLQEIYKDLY

[6] = test system: MCF7 cells (human breast cancer-derived); assay: SRB growth inhibition assay, MCF7 cells; type: cell-based; details: Homo sapiens, MCF7, 48 h, 48 hours exposure
Description: as §1, §2

[7] = target: T3, human PPAR-gamma ligand binding domain (Homo sapiens, UniProt P37231); assay: PPAR gamma ligand binding (displacement of cis-parinaric acid)
T3 sequence (P37231 202-505): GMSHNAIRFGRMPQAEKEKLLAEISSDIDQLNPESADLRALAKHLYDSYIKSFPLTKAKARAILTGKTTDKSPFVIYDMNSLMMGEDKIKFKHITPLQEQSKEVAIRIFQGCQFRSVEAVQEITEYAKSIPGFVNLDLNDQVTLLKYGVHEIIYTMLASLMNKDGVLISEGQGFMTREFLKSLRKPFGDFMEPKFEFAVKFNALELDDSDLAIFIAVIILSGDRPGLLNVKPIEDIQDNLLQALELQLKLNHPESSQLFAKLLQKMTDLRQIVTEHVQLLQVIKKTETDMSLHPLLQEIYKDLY

[8] = target: T4, human PPAR-alpha ligand binding domain (Homo sapiens, UniProt Q07869); assay: PPAR alpha ligand binding (displacement of DAUDA)
T4 sequence (Q07869 179-468): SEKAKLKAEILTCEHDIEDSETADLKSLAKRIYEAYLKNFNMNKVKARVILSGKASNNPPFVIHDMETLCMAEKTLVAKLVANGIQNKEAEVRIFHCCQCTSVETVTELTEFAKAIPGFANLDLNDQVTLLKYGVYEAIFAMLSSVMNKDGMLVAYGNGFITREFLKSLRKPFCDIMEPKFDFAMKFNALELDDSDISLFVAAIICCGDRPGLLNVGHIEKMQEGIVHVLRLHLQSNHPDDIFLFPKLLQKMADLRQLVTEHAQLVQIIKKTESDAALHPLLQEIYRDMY

[9] = 15 mg/kg/day oral gavage 7 days
[10] = 25 mg/kg/day oral gavage 7 days

SMILES	IC50 [1]	IC50 [3]	IC50 [4]	Cholesterol (plasma) [5, 9]	Glucose (plasma) [5, 9]	Insulin (plasma) [5, 9]	Triglycerides (plasma) [5, 9]	Plasma insulin, % of control values ([5]; 25 mg/kg)	Cholesterol (plasma) [5, 10]	Glucose (plasma) [5, 10]	Insulin (plasma) [5, 10]	Triglycerides (plasma) [5, 10]	Fold activation of PPAR delta (PPAR delta)	IC50 [6]	further results
COC(=O)C(F)(F)C(F)(F)C(F)(F)C(F)(F)C(F)(F)C(F)(F)C(F)(F)F [MPOA, Methyl perfluorooctanoate]	~3000 µM	> 3000 µM	> 3000 µM	1.17 ± 0.31 mmol/L	11.48 ± 1.27 mmol/L	4.87 ± 2.611 ng/mL	0.28 ± 0.08 mmol/L	15.6%	0.73 ± 0.23 mmol/L	12.99 ± 2.07 mmol/L	28.74 ± 17.22 ng/mL	0.6 ± 0.89 mmol/L	1.51 ± 0.31 fold	> 2790 µM	Plasma concentration of PFOA (free acid) [2]: equimolar concentrations of PFOA; Plasma insulin, % of control values ([5]; 15 mg/kg): 2.6%; Weight loss ([5]; 15 mg/kg, 7 days): 8.2%; Plasma cholesterol, % of control values ([5]; 25 mg/kg): 36.7%; Plasma triglycerides, % of control values ([5]; 25 mg/kg): 33.7%; Bodyweight lost ([5]; 25 mg/kg, after day 6, terminated early): 8%; Bodyweight change ([5]; 15 and 25 mg/kg/day, continued till end of treatment): lost bodyweight after day 3; Food consumption ([5]; 15 and 25 mg/kg/day, versus control): dose-related, decreases in food consumption; Plasma glucose, % of control values ([5]; dose not stated): 78.6%; Fold activation of PPAR gamma (PPAR gamma; at 1 mM, mean±SD n=3): 2.92 ± 0.12 fold
O=C(O)C(F)(F)C(F)(F)C(F)(F)C(F)(F)F [PFPenA, Perfluoropentanoic acid]	~3000 µM	2630 µM	> 3000 µM	1.83 ± 0.41 mmol/L	16.22 ± 1.29 mmol/L	124.7 ± 126.3 ng/mL	1.24 ± 0.04 mmol/L	33.9%	1.67 ± 0.20 mmol/L	16.67 ± 0.93 mmol/L	62.6 ± 68.26 ng/mL	1.07 ± 0.37 mmol/L	0.45 ± 0.04 fold	> 3000 µM	Inhibition of activation of PPAR delta (by a factor of) (PPAR delta; transactivation assay): 2.2; Fold activation of PPAR gamma (PPAR gamma; at 10 μM (maximal activation by test compound), value in parenthesis = positive control at 10 μM): 5.07 ± 2.29 fold; Kd [7]: 17 µM; Reduction in binding affinity for PPAR gamma compared to PFOA [7]: approximately 50 fold; Reduction in binding affinity for PPAR alpha compared to PFOA [8]: 10 fold; Kd ([8]; PPAR Receptor Binding Kd Alpha (apparent Kd), DAUDA displacement): 62 µM
